{"source": "ChEMBL document CHEMBL3217743", "about": "“Reduction of acyl glucuronidation in a series of acidic 11-hydroxysteroid dehydrogenase type 1 (11-HSD1) inhibitors: the discovery of AZD6925” (Medchemcomm, 2012)", "key": {"[1]": {"assay": "Fraction unbound in mouse plasma by equilibrium dialysis technique", "type": "ADME, cell-free"}, "[2]": {"assay": "Apparent permeability from basolateral to apical side in MDCK cells at 10 uM", "type": "ADME, cell-based, Canis lupus familiaris", "details": "dog"}, "[3]": {"assay": "Plasma clearance in mouse at 1 to 3 mg/kg", "type": "ADME, organism-based", "parameters": "dose 1-3 mg/kg"}, "[4]": {"assay": "Plasma clearance in dog at 1 to 3 mg/kg", "type": "ADME, organism-based, Canis lupus familiaris", "parameters": "dose 1-3 mg/kg"}, "[5]": {"assay": "Volume of distribution at steady state in mouse at 1 to 3 mg/kg", "type": "ADME, organism-based", "parameters": "dose 1-3 mg/kg", "details": "in vivo, read-out: Vdss"}, "[6]": {"assay": "Volume of distribution at steady state in dog at 1 to 3 mg/kg", "type": "ADME, organism-based, Canis lupus familiaris", "parameters": "dose 1-3 mg/kg", "details": "in vivo, read-out: Vdss"}, "[7]": {"assay": "Half life in rat at 1 to 3 mg/kg, iv", "type": "ADME, organism-based", "parameters": "dose 1-3 mg/kg, route intravenous", "details": "in vivo"}, "[8]": {"assay": "Half life in mouse at 1 to 3 mg/kg, po", "type": "ADME, organism-based", "parameters": "dose 1-3 mg/kg, route oral", "details": "in vivo"}, "[9]": {"assay": "Half life in dog at 1 to 3 mg/kg, po", "type": "ADME, organism-based, Canis lupus familiaris", "parameters": "dose 1-3 mg/kg, route oral", "details": "in vivo"}, "[10]": {"assay": "Drug metabolism in rat hepatocytes assessed as compound remaining by LC-MS/MS analysis", "type": "ADME, cell-based, Hepatocyte"}, "[11]": {"assay": "Drug excretion in bile duct cannulated rat bile assessed as compound remaining by HPLC analysis", "type": "ADME, tissue-based", "details": "in vivo"}, "[12]": {"molecular_target": "T1, 11-beta-hydroxysteroid dehydrogenase type 2 (Homo sapiens, UniProt P80365)", "T1 sequence (P80365 whole entry)": "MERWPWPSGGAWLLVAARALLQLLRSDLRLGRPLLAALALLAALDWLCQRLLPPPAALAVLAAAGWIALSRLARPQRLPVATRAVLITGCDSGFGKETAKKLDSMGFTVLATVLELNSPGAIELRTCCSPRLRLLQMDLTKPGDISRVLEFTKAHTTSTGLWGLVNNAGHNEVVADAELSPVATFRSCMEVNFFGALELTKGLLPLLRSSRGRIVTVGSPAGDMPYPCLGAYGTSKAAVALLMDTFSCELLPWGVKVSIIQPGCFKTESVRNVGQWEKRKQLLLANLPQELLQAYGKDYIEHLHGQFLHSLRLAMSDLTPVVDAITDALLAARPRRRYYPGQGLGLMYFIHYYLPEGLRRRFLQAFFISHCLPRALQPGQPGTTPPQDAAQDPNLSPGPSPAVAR", "assay": "Inhibition of recombinant 11beta-HSD2 (unknown origin) assessed as conversion of cortisol to cortisone after 40 mins by fluorescence assay"}, "[13]": {"molecular_target": "T2, 17-beta-hydroxysteroid dehydrogenase type 1 (Homo sapiens) (UniProt P14061)", "T2 sequence (whole entry)": "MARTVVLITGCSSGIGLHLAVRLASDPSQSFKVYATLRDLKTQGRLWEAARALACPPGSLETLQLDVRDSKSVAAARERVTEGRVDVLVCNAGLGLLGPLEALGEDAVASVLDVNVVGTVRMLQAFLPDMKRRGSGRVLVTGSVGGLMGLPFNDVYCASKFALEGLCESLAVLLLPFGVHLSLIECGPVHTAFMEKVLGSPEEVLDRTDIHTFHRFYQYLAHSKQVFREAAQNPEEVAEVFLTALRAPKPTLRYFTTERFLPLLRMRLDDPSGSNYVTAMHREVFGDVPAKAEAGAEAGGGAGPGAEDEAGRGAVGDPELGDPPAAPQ", "assay": "Inhibition of recombinant 17beta-HSD1 (unknown origin) assessed as conversion of estrone to estradiol at 10 uM after 20 mins by scintillation counting analysis relative to control"}, "[14]": {"molecular_target": "T3, 17-beta-hydroxysteroid dehydrogenase type 3 (Homo sapiens, UniProt P37058)", "T3 sequence (P37058 whole entry)": "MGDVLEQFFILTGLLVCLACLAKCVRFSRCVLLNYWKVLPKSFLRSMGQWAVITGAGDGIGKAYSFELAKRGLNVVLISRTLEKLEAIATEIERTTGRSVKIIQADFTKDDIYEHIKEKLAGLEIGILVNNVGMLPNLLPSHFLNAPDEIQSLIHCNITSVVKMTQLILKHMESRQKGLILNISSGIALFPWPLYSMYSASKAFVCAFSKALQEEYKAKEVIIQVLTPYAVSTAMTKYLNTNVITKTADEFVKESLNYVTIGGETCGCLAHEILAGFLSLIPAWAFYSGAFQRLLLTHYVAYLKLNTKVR", "assay": "Inhibition of recombinant 17beta-HSD3 (unknown origin) assessed as conversion of androstenedione to testosterone after 90 mins by scintillation counting analysis"}, "[15]": {"molecular_target": "Voltage-gated inwardly rectifying potassium channel KCNH2 (Homo sapiens, UniProt Q12809)", "sequence (Q12809 whole entry)": "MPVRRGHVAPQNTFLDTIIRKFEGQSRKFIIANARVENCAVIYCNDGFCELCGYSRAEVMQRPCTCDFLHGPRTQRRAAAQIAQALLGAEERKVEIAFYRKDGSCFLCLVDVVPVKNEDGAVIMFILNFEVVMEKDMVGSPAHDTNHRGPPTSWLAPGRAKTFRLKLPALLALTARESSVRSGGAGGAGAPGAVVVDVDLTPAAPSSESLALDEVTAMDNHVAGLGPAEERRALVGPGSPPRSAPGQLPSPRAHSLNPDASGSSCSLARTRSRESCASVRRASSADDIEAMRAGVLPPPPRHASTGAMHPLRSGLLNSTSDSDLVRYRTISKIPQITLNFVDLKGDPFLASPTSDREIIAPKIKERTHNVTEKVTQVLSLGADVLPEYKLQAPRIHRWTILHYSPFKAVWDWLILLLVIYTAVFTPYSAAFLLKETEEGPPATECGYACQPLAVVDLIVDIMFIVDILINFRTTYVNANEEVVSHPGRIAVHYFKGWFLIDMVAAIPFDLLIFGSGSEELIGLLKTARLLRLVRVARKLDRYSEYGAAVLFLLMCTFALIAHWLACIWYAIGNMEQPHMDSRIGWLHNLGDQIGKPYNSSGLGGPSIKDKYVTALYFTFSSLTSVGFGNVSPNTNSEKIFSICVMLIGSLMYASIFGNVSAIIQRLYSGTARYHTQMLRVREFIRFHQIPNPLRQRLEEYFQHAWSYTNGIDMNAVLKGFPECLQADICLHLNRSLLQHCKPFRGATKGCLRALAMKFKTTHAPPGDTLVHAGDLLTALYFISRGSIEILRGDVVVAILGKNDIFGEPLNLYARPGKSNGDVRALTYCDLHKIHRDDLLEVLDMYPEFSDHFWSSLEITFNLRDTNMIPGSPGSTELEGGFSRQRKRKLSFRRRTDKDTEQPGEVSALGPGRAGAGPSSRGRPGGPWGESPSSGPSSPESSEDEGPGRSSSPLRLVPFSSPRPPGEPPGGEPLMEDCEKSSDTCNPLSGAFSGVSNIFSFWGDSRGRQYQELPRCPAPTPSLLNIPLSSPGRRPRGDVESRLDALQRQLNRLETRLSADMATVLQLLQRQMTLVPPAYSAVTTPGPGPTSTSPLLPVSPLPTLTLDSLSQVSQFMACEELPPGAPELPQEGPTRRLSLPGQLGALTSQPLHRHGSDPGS", "assay": "Inhibition of human ERG"}, "[16]": {"molecular_target": "Sigma non-opioid intracellular receptor 1 (Homo sapiens, UniProt Q99720)", "sequence (Q99720 whole entry)": "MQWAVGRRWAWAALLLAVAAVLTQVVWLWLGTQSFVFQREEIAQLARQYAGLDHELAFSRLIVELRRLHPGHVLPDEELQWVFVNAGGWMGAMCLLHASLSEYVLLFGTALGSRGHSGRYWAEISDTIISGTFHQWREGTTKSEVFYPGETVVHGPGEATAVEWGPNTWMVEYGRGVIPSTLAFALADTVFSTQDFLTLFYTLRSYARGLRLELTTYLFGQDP", "assay": "Inhibition of sigma-1 receptor (unknown origin)"}, "[17]": {"molecular_target": "11-beta-hydroxysteroid dehydrogenase 1 (Mus musculus, UniProt P50172)", "sequence (P50172 whole entry)": "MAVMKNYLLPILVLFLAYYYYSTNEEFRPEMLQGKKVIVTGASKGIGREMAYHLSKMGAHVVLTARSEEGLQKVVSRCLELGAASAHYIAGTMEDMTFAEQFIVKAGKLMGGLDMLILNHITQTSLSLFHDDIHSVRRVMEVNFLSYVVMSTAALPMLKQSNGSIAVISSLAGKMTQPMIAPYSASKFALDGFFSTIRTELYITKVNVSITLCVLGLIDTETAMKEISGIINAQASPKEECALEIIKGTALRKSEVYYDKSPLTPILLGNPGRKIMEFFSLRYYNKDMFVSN", "assay": "Inhibition of N-terminal 6-His-tagged mouse full length 11beta-HSD1 assessed as conversion of cortisone to cortisol after 25 mins by HTRF assay"}, "[18]": {"assay": "Inhibition of N-terminal 6-His-tagged cynomolgus monkey full length 11beta-HSD1 assessed as conversion of cortisone to cortisol after 25 mins by HTRF assay", "parameters": "species or system Macaca fascicularis"}, "Mus musculus": {"system": "Mus musculus", "assay": "Ex vivo inhibition of 11beta-HSD1-mediated conversion of [3H]-cortisone to [3H]-cortisol in C57Bl6J mouse adipose tissue at 30 mg/kg, po after 1 hr by scintillation counting analysis relative to control", "type": "functional"}, "[19]": {"assay": "Fraction unbound in rat plasma by equilibrium dialysis technique", "type": "ADME, cell-free"}, "[20]": {"assay": "Clearance in rat", "type": "ADME, organism-based", "details": "in vivo"}, "CYP1A2": {"molecular_target": "T4, CYP1A2 (Homo sapiens, UniProt P05177)", "T4 sequence (P05177 whole entry)": "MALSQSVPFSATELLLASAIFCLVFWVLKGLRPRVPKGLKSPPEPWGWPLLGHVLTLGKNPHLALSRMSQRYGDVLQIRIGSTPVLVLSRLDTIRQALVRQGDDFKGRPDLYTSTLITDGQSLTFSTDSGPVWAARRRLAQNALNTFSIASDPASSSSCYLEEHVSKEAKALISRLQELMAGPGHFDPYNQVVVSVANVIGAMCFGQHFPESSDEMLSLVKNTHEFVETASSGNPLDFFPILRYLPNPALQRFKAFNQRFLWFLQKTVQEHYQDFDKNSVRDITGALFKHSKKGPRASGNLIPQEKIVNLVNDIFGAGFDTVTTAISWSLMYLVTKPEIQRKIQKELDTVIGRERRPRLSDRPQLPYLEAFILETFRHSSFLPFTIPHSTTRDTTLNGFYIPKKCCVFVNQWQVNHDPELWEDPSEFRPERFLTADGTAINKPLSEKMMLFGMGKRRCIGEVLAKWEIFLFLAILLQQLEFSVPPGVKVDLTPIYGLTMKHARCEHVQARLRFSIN", "assay": "Inhibition of CYP1A2 (unknown origin) at 10 uM relative to control", "type": "ADME"}, "CYP2D6": {"molecular_target": "CYP2D6 (Homo sapiens, UniProt P10635)", "sequence (P10635 whole entry)": "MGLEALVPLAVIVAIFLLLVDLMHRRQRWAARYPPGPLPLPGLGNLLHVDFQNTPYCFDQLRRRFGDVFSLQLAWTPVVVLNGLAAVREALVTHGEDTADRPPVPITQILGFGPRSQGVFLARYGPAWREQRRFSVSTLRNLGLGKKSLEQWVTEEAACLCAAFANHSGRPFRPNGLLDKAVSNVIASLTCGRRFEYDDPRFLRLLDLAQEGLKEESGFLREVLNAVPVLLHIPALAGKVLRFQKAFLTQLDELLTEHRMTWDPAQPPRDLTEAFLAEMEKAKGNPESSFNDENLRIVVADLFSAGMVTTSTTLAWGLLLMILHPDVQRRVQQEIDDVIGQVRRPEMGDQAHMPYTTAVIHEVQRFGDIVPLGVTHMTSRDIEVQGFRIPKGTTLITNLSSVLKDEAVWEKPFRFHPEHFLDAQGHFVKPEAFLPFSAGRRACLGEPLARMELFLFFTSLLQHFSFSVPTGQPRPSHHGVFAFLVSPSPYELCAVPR", "assay": "Inhibition of CYP2D6 (unknown origin) at 10 uM relative to control", "type": "ADME"}, "CYP2C19": {"molecular_target": "CYP2C19 (Homo sapiens, UniProt P33261)", "sequence (P33261 whole entry)": "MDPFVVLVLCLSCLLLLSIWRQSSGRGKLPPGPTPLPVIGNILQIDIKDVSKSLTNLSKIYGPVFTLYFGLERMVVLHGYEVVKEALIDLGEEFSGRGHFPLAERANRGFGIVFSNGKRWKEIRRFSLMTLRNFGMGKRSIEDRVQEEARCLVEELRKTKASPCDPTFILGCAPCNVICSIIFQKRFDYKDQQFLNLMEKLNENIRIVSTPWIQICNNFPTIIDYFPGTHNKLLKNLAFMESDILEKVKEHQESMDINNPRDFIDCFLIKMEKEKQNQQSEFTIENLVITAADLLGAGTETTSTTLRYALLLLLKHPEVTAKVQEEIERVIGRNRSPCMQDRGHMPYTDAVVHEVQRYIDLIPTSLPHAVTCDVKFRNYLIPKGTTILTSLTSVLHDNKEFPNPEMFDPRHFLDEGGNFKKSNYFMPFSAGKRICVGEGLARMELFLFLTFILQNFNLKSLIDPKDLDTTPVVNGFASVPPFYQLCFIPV", "assay": "Inhibition of CYP2C19 (unknown origin) at 10 uM relative to control", "type": "ADME"}, "[21]": {"assay": "Aqueous solubility of crystalline form of compound in phosphate buffer at pH 7.4 after 24 hrs by LC-UV analysis", "type": "physicochemical"}}}
{"smiles": "CSc1nc(N2C[C@@H]3[C@H](C2)[C@H]3C(=O)O)ccc1C(=O)NC12CC3CC(CC(C3)C1)C2", "values": [{"measurement": "fraction unbound", "setting": "[1]", "result": 0.023}, {"measurement": "Papp B→A at 10 µM", "setting": "[2]", "result": 13, "unit": "×10⁻⁶ cm/s"}, {"measurement": "clearance", "setting": "[3]", "result": 9, "unit": "mL/min/kg"}, {"measurement": "clearance", "setting": "[4]", "result": 1, "unit": "mL/min/kg"}, {"measurement": "Vd", "setting": "[5]", "result": 1.2, "unit": "L/kg"}, {"measurement": "Vd", "setting": "[6]", "result": 0.7, "unit": "L/kg"}, {"measurement": "half-life", "setting": "[7]", "result": 4.3, "unit": "h"}, {"measurement": "half-life", "setting": "[8]", "result": 2.5, "unit": "h"}, {"measurement": "half-life", "setting": "[9]", "result": 27, "unit": "h"}, {"measurement": "Stability", "setting": "[10]", "result": 82, "unit": "%"}, {"measurement": "Stability", "setting": "[11]", "result": 52.8, "unit": "%"}, {"measurement": "IC50", "setting": "[12]", "result": "> 30", "unit": "µM"}, {"measurement": "inhibition", "setting": "[13]", "result": 20, "unit": "%"}, {"measurement": "IC50", "setting": "[14]", "result": 25, "unit": "µM"}, {"measurement": "IC50", "setting": "[15]", "result": "> 30", "unit": "µM"}, {"measurement": "IC50", "setting": "[16]", "result": 30, "unit": "µM"}, {"measurement": "IC50", "setting": "[17]", "result": 0.31, "unit": "µM"}, {"measurement": "IC50", "setting": "[18]", "result": 0.02, "unit": "µM"}, {"measurement": "inhibition in vivo at 30 mg/kg", "setting": "Mus musculus", "result": 50, "unit": "%"}, {"measurement": "fraction unbound", "setting": "[19]", "result": 0.017}, {"measurement": "clearance", "setting": "[20]", "result": 6, "unit": "mL/min/kg"}, {"measurement": "inhibition at 10 µM", "setting": "CYP1A2", "result": "< 25", "unit": "%"}, {"measurement": "inhibition at 10 µM", "setting": "CYP2D6", "result": "< 25", "unit": "%"}, {"measurement": "inhibition at 10 µM", "setting": "CYP2C19", "result": "< 25", "unit": "%"}, {"measurement": "solubility thermodynamic at 24 h", "setting": "[21]", "result": "> 3000", "unit": "µM"}]}
